From patent US11505548B2, “Heterocyclic compounds and their use for treatment of helminthic infections and diseases” (Celgene Corporation, priority 2019, dated 2022)

Test system: Onchocerca gutturosa Adult Male Worms
Experiment: Onchocerciasis in vitro screening model, worm motility score
Assay type: cell-based
Settings: in vitro; Onchocerca gutturosa adult male worms; class A/B/C; read-out: O. gutturosa activity level (IC50 or MED)

| SMILES | IC50 [nM] |
| --- | --- |
| Cc1cccnc1Nc1nc(-c2ccc(OC3CCN(C(=O)C(C)C)CC3)cn2)ns1 [Compound 265, 2-methyl-1-(4-(6-(5-(3-methylpyridin-2-ylamino)-1,2,4-thiadiazol-3-yl)pyridin-3-yloxy)piperidin-1-yl)propan-1-one] | 500 to 5000 |
| CC(=O)N1CCC(Oc2ccc(-c3nsc(Nc4ncccc4C)n3)nc2)CC1 [Compound 266, 1-(4-(6-(5-(3-methyl-pyridin-2-ylamino)-1,2,4-thiadiazol-3-yl)pyridin-3-yloxy)piperidin-1-yl)ethanone] | 500 to 5000 |
| CC(=O)N1CCc2cc(-c3nsc(Nc4ncccc4C(F)(F)F)n3)ncc21 [Compound 267, 1-(5-(5-(3-(trifluoromethyl)pyridin-2-ylamino)-1,2,4-thiadiazol-3-yl)-2,3-dihydro-1H-pyrrolo[2,3-c]pyridin-1-yl)ethanone] | 500 to 5000 |
| CC(=O)N(C)c1cc(C(F)(F)F)cnc1Nc1nc(-c2cc(C(F)(F)F)c(OC(C)C)cn2)ns1 [Compound 268, N-(2-(3-(5-isopropoxy-4-(trifluoromethyl)pyridin-2-yl)-1,2,4-thiadiazol-5-ylamino)-5-(trifluoromethyl)pyridin-3-yl)-N-methylacetamide] | 500 to 5000 |
| CC(=O)N(C)c1cnc(-c2nsc(Nc3ncccc3C)n2)cc1C [Compound 270, N-methyl-N-(4-methyl-6-(5-(3-methylpyridin-2-ylamino)-1,2,4-thiadiazol-3-yl)pyridin-3-yl)acetamide] | 500 to 5000 |
| CC(=O)N(C)c1cccnc1Nc1nc(-c2cc3c(cn2)OC(C)(C)C3)ns1 [Compound 271, N-(2-(3-(2,2-dimethyl-2,3-dihydrofuro [2,3-c]pyridin-5-yl)-1,2,4-thiadiazol-5-ylamino)pyridin-3-yl)-N-methylacetamide] | 500 to 5000 |
| CC(=O)N(C)c1cc(C(F)(F)F)cnc1Nc1nc(-c2cc3c(cn2)OC(C)(C)C3)ns1 [Compound 272, N-(2-(3-(2,2-dimethyl-2,3-dihydrofuro [2,3-c]pyridin-5-yl)-1,2,4-thiadiazol-5-ylamino)-5-(trifluoromethyl)pyridin-3-yl)-N-methylacetamide] | 200 to 500 |
| CC(=O)N(C)c1cc(C(F)(F)F)cnc1Nc1nc(-c2cc3c(cn2)N(C(C)C)CC3)ns1 [Compound 273, N-(2-(3-(1-isopropyl-2,3-dihydro-1H-pyrrolo[2,3-c]pyridin-5-yl)-1,2,4-thiadiazol-5-ylamino)-5-(trifluoromethyl)pyridin-3-yl)-N-methylacetamide] | 200 to 500 |
| Cc1cnc(Nc2nc(-c3cc(OC4COC4)ccn3)ns2)c(C(F)(F)F)c1 [Compound 275, N-(5-methyl-3-(trifluoromethyl)pyridin-2-yl)-3-(4-(oxetan-3-yloxy)pyridin-2-yl)-1,2,4-thiadiazol-5-amine] | 500 to 5000 |
| COC(=O)c1cccnc1Nc1nc(-c2ccc(OC(C)C)cn2)ns1 [Compound 276, methyl 2-(3-(5-isopropoxy-pyridin-2-yl)-1,2,4-thiadiazol-5-ylamino) nicotinate] | 500 to 5000 |
| Cc1cccnc1Nc1nc(-c2ccc(C(=O)N(C)C)cn2)no1 [Compound 277, N,N-dimethyl-6-(5-(3-methylpyridin-2-ylamino)-1,2,4-oxadiazol-3-yl)nicotinamide] | 500 to 5000 |
| Cc1cccnc1Nc1nc(-c2ccc(C#N)cn2)ns1 [Compound 278, 6-(5-(3-methylpyridin-2-ylamino)-1,2,4-thiadiazol-3-yl)nicotinonitrile] | 500 to 5000 |
| CC(=O)N(C)c1cnc(Nc2nc(-c3ncccc3OC(C)C)ns2)c(C(F)(F)F)c1 [Compound 279, N-(6-(3-(3-isopropoxy-pyridin-2-yl)-1,2,4-thiadiazol-5-ylamino)-5-(trifluoro-methyl)pyridin-3-yl)-N-methylacetamide] | 500 to 5000 |
| CC(=O)N(C)c1cc(C(F)(F)F)cnc1Nc1nc(-c2cc3c(cn2)NC(=O)C3(C)C)ns1 [Compound 280, N-(2-(3-(3,3-dimethyl-2-oxo-2,3-dihydro-1H-pyrrolo[2,3-c]pyridin-5-yl)-1,2,4-thiadiazol-5-ylamino)-5-(trifluoromethyl)pyridin-3-yl)-N-methylacetamide] | 500 to 5000 |
| CC(C)Oc1cccnc1-c1nsc(Nc2ncc(C(F)(F)F)cc2C(=O)N(C)C)n1 [Compound 281, 2-(3-(3-isoprop-oxypyridin-2-yl)-1,2,4-thiadiazol-5-ylamino)-N,N-dimethyl-5-(trifluoromethyl) nicotinamide] | 500 to 5000 |
| CC(=O)N(C)c1cnc(Nc2nc(-c3cc(OC(C)C)ccn3)ns2)c(C(F)(F)F)c1 [Compound 285, N-(6-(3-(4-isopropoxy-pyridin-2-yl)-1,2,4-thiadiazol-5-ylamino)-5-(trifluoromethyl)pyridin-3-yl)-N-methylacetamide] | 500 to 5000 |
| CC(C)Oc1ccc(-c2nsc(Nc3ncc(C(F)(F)F)cc3S(=O)(=O)N(C)C)n2)nc1 [Compound 286, 2-(3-(5-isopropoxy-pyridin-2-yl)-1,2,4-thiadiazol-5-ylamino)-N,N-dimethyl-5-(trifluoromethyl) pyridine-3-sulfonamide] | 500 to 5000 |

| SMILES | IC50 [nM] |
| --- | --- |
| CC(=O)N(C)c1cc(C(F)(F)F)cnc1Nc1nc(-c2cc3c(cn2)N(C)C(=O)C3(C)C)ns1 [Compound 287, N-methyl-N-(5-(trifluoromethyl)-2-(3-(1,3,3-trimethyl-2-oxo-2,3-dihydro-1H-pyrrolo[2,3-c]pyridin-5-yl)-1,2,4-thiadiazol-5-ylamino)pyridin-3-yl)acetamide] | 500 to 5000 |
| CC(=O)N(C)c1cnc(Nc2nc(-c3cc(OC(C)C)ccn3)ns2)c(C)c1 [Compound 288, N-(6-(3-(4-isopropoxypyridin-2-yl)-1,2,4-thiadiazol-5-ylamino)-5-methylpyridin-3-yl)-N-methylacetamide] | 500 to 5000 |
| CC(=O)N(C)c1cc(C(F)(F)F)cnc1Nc1nc(-c2cc3c(cn2)N(C)C(C)(C)C3)ns1 [Compound 291, N-methyl-N-(5-(trifluoromethyl)-2-(3-(1,2,2-trimethyl-2,3-dihydro-1H-pyrrolo[2,3-c]pyridin-5-yl)-1,2,4-thiadiazol-5-ylamino)pyridin-3-yl)acetamide] | < 200 |
| CN(C)C(=O)c1cc(C(F)(F)F)cnc1Nc1nc(-c2cc3c(cn2)N(C)C(=O)C3(C)C)ns1 [Compound 292, N,N-dimethyl-5-(trifluoromethyl)-2-(3-(1,3,3-trimethyl-2-oxo-2,3-dihydro-1H-pyrrolo[2,3-c]pyridin-5-yl)-1,2,4-thiadiazol-5-ylamino) nicotinamide] | 500 to 5000 |
| CN(C)C(=O)c1cc(C(F)(F)F)cnc1Nc1nc(-c2cc3c(cn2)N(C)C(C)(C)C3)ns1 [Compound 293, N,N-dimethyl-5-(trifluoromethyl)-2-(3-(1,2,2-trimethyl-2,3-dihydro-1H-pyrrolo[2,3-c]pyridin-5-yl)-1,2,4-thiadiazol-5-ylamino) nicotinamide] | < 200 |
| CC(=O)N(C)c1cnc(Nc2n[nH]c(-c3cc4c(cn3)N(C(C)C)CC4)n2)c(C(F)(F)F)c1 [Compound 294, N-(6-(5-(1-isopropyl-2,3-dihydro-1H-pyrrolo[2,3-c]pyridin-5-yl)-1H-1,2,4-triazol-3-ylamino)-5-(trifluoromethyl)pyridin-3-yl)-N-methylacetamide] | 500 to 5000 |
| CC(=O)N(C)c1cc(C(F)(F)F)cnc1Nc1n[nH]c(-c2cc3c(cn2)N(C(C)C)CC3)n1 [Compound 295, N-(2-(5-(1-isopropyl-2,3-dihydro-1H-pyrro1o[2,3-c]pyridin-5-yl)-1H-1,2,4-triazol-3-ylamino)-5-(trifluoromethyl)pyridin-3-yl)-N-methylacetamide] | 500 to 5000 |
| CC(C)c1cnc(Nc2nc(-c3cc4c(cn3)OC(C)(C)C4)ns2)cc1C(F)(F)F [Compound 296, 3-(2,2-dimethyl-2,3-dihydrofuro[2,3-c]pyridin-5-yl)-N-(5-isopropyl-4-(trifluoromethyl)pyridin-2-yl)-1,2,4-thiadiazol-5-amine] | < 200 |
| CC(=O)N(C)c1cnc(Nc2nc(-c3ccc(OC(C)C)cn3)ns2)c(C)c1 [Compound 297, N-(6-(3-(5-isopropoxypyridin-2-yl)-1,2,4-thiadiazol-5-ylamino)-5-methylpyridin-3-yl)-N-methylacetamide] | 200 to 500 |
| CC(C)Oc1ccc(-c2nsc(Nc3ncccc3S(=O)(=O)N3CCC3)n2)nc1 [Compound 298, N-(3-(azetidin-1-ylsulfonyl)pyridin-2-yl)-3-(5-isopropoxypyridin-2-yl)-1,2,4-thiadiazol-5-amine] | 200 to 500 |
| CC(=O)N(C)c1cnc(Nc2nc(-c3cc4c(cn3)N(C(C)C)CC4)ns2)c(C(F)(F)F)c1 [Compound 299, N-(6-(3-(1-isopropyl-2,3-dihydro-1H-pyrrolo[2,3-c]pyridin-5-yl)-1,2,4-thiadiazol-5-ylamino)-5-(trifluoromethyl)pyridin-3-yl)-N-methylacetamide] | < 200 |
| CC(=O)N(C)c1cnc(Nc2nc(-c3ccc(OC(C)C)cn3)ns2)c(C(F)(F)F)c1 [Compound 300, N-(6-(3-(5-isopropoxypyridin-2-yl)-1,2,4-thiadiazol-5-ylamino)-5-(trifluoromethyl)pyridin-3-yl)-N-methylacetamide] | 500 to 5000 |
| CC(=O)N(C)c1cc(C(F)(F)F)cnc1Nc1nc(-c2cc(C(C)C)ccn2)ns1 [Compound 301, N-(2-(3-(4-isopropylpyridin-2-yl)-1,2,4-thiadiazol-5-ylamino)-5-(trifluoromethyl)pyridin-3-yl)-N-methylacetamide] | < 200 |
| CC(=O)N(C)c1nccnc1Nc1nc(-c2cc3ccn(C(C)C)c3cn2)ns1 [Compound 302, N-(3-(3-(1-isopropyl-1H-pyrrolo[2,3-c]pyridin-5-yl)-1,2,4-thiadiazol-5-ylamino)pyrazin-2-yl)-N-methylacetamide] | < 200 |
| CNc1nccnc1Nc1nc(-c2cc3ccn(C(C)C)c3cn2)ns1 [Compound 303, N2-(3-(1-isopropyl-1H-pyrrolo[2,3-c]pyridin-5-yl)-1,2,4-thiadiazol-5-yl)-N3-methylpyrazine-2,3-diamine] | < 200 |
| CC(=O)N(C)c1cc(C(F)(F)F)cnc1Nc1nc(-c2cc3c(cn2)CCN3C(C)C)ns1 [Compound 304, N-(2-(3-(1-isopropyl-2,3-dihydro-1H-pyrrolo[3,2-c]pyridin-6-yl)-1,2,4-thiadiazol-5-ylamino)-5-(trifluoromethyl)pyridin-3-yl)-N-methylacetamide] | < 200 |
